US11931376B1, “Methods for the treatment of chronic kidney disease” (RENATUS INC., priority 2022, dated 2024)

Assays:
[1] = tested on: red blood cells (whole blood); test: Hemolysis assay; type: cell-based, C57/BL6 mice; settings: cyclodextrin 50 mg/ml, 1 hour, 37° C., absorbance at 540 nm
Procedure: Whole blood from wilt-type C57/BL6 mice was used for assessment of hemolytic activity of cyclodextrins. The whole blood samples (300 μl) were mixed with each cyclodextrin at a concentration of 50 mg/ml and incubated for 1 hour at 37° C. After centrifugation at 3,000 g for 5 minutes, the absorbance at 540 nm of the supernatant was measured.

Murine mesangial cells = test: Cholesterol efflux in kidney mesangial cells (flow cytometry); type: cell-based, C57BL/6 mice; settings: mesangial cells loaded with NBD-CC for 3 hours, cyclodextrin 5 mg/ml
Procedure: Murine mesangial cells derived from the kidney of wild-type C57BL/6 mice were maintained in DMEM, 10% fetal bovine serum (FBS), 100 U/ml penicillin G, 100 μg/ml streptomycin, and 2 mM L-glutamine. The cells were seeded at a density of 10^6 cells/well one day before treatment with NBD-CC. The cells were treated with 100 μg of NBD-CC per 10^6 cells for 3 hours and then washed thoroughly twice. Then, cyclodextrins were treated at a concentration of 5 mg/ml. For the assessment of cholesterol efflux and efflux-mediating proteins ABCA1 and ABCG1, flow cytometry was performed.

[2] = tested on: macrophage cell line (Raw264.7); test: Cell viability assay (CCK-8); type: cell-based; settings: cyclodextrin 20 mg/ml, 24 hours, 37° C.
Procedure: The cells were seeded in a 96-well plate at a density of 5×10^4 cells and 24 hours later cyclodextrin were treated at a concentration of 20 mg/ml for 24 hours at 37° C. CCK-8 agent was added, 10 μl per well. After 3 hours, absorbance at 450 nm was measured to assess cellular viability.

albuminuria = test: Albuminuria in diabetic kidney disease mouse model; type: in vivo, db/db mice; settings: subcutaneous 2 g/kg twice a week for 4 weeks
Procedure: To investigate the effects of cyclodextrins on albuminuria, 8-week-old male db/db mice were used to model diabetes type II, which is susceptible to albuminuria. In the experimental setup, Oligo-GCD (4103 Da), Oligo-HPGCD (3825 Da) and HPBCD-B were subcutaneously injected at a dose of 2 g/kg twice a week for 4 weeks. Control mice were given PBS only. After the treatment is completed, 24-hour urine samples were collected and the concentration of albumin in the urine was measured (FIG. 8A).

SMILES | hemolytic activity [1] | cellular cholesterol content (Murine mesangial cells) | cell viability [2] | ACR reduction compared to control (albuminuria) | albumin/creatinine ratio (ACR) (albuminuria; urine at end of week 4)
CC(O)COC[C@H]1O[C@@H]2O[C@H]3[C@H](O)[C@@H](O)[C@@H](O[C@H]4[C@H](O)[C@@H](O)[C@@H](O[C@H]5[C@H](O)[C@@H](O)[C@@H](O[C@H]6[C@H](O)[C@@H](O)[C@@H](O[C@H]7[C@H](O)[C@@H](O)[C@@H](O[C@H]8[C@H](O)[C@@H](O)[C@@H](O[C@H]1[C@H](O)[C@H]2O)O[C@@H]8COCC(C)O)O[C@@H]7COCC(C)O)O[C@@H]6COCC(C)O)O[C@@H]5COCC(C)O)O[C@@H]4COCC(C)O)O[C@@H]3COCC(C)O (single isomer, unassigned) [HPBCD-A, hydroxypropyl-beta-cyclodextrin] | disrupt the plasma membrane and induce hemolysis | 54.1% | induce cell viability loss |  | 
CC(O)COC[C@H]1O[C@@H]2O[C@H]3[C@H](O)[C@@H](O)[C@@H](O[C@H]4[C@H](O)[C@@H](O)[C@@H](O[C@H]5[C@H](O)[C@@H](O)[C@@H](O[C@H]6[C@H](O)[C@@H](O)[C@@H](O[C@H]7[C@H](O)[C@@H](O)[C@@H](O[C@H]8[C@H](O)[C@@H](O)[C@@H](O[C@H]1[C@H](O)[C@H]2O)O[C@@H]8COCC(C)O)O[C@@H]7COCC(C)O)O[C@@H]6COCC(C)O)O[C@@H]5COCC(C)O)O[C@@H]4COCC(C)O)O[C@@H]3COCC(C)O (single isomer, unassigned) [HPBCD-B, hydroxypropyl-beta-cyclodextrin] | disrupt the plasma membrane and induce hemolysis | 48.2% | induce cell viability loss | 22.6% | 190.9 µg/mg
CC(O)COC[C@H]1O[C@@H]2O[C@H]3[C@H](O)[C@@H](O)[C@@H](O[C@H]4[C@H](O)[C@@H](O)[C@@H](O[C@H]5[C@H](O)[C@@H](O)[C@@H](O[C@H]6[C@H](O)[C@@H](O)[C@@H](O[C@H]7[C@H](O)[C@@H](O)[C@@H](O[C@H]8[C@H](O)[C@@H](O)[C@@H](O[C@H]1[C@H](O)[C@H]2O)O[C@@H]8COCC(C)O)O[C@@H]7COCC(C)O)O[C@@H]6COCC(C)O)O[C@@H]5COCC(C)O)O[C@@H]4COCC(C)O)O[C@@H]3COCC(C)O (single isomer, unassigned) [HPBCD-C, hydroxypropyl-beta-cyclodextrin] | disrupt the plasma membrane and induce hemolysis | 50.5% | induce cell viability loss |  | 
